Test results published in patent US6919331B2, “Substituted 2-methyl-benzimidazole respiratory syncytial virus antiviral agents” (Bristol-Myers Squibb Company, priority 2001, dated 2005).

Test system: respiratory syncytial virus Long strain
Assay: cell protection assay (RSV-induced cytopathic effects, MTT staining)
Type: cell-based
Procedure: For cell protection assays, HEp-2 (ATCC CCL 23) cells were seeded in 96 well microtiter plates at 1.5×10^4 cells/100 μL/well in DMEM (Dulbecco's Modified Eagle's Medium) supplemented with penicillin, streptomycin, glutamine, and 10% fetal bovine serum. After overnight incubation at 37° C., the culture medium was removed and cells were infected with respiratory syncytial virus Long strain at 5000 plaque forming units (PFU)/mL in a 100 μL volume of medium containing 2% fetal bovine serum. The compounds, 100 μL at appropriate dilution, were added to the cells one hour post infection. After incubation for 4 days at 37° C., the plates were stained with MTT solution (3-[4,5-dimethlythiazol-2-yl]-2,5-diphenyltetrazolium bromide) and incubated for 4 hours at 37° C. The media was aspirated from the cells and 100 μL/well of acidified isopropanol (per liter: 900 mL isopropanol, 100 mL Triton X100, and 4 mL conc. HCl) was added. Plates were incubated for 15 minutes at room temperature with shaking, and an optical density (OD 540) reading at 540 nanometer (nm) was obtained. The optical density reading is proportional to the number of viable cells. The increase in the number of viable cells reflects the protective, antiviral activity of the compound. […]

NC(=O)c1ncn([C@@H]2O[C@H](CO)[C@@H](O)[C@H]2O)n1 [Ribavirin]
cell protection (at 2.5 μg/mL (corresponding to 10.2 μM), HEp-2 cells, RSV Long strain): 100% | EC50 (human respiratory syncytial virus, HEp-2 cells infected with RSV Long strain, compound added one hour post infection, 4 days, MTT, read-out: EC50 (concentration that produces 50% cell protection)): 3000 nM
